Source: patent US11293023B2, “Tunable endogenous protein degradation” (Dana-Farber Cancer Institute, Inc., priority 2015, dated 2022)

Columns and labels:
Assay type in all cases: cell-based
[1] = target: T1, FKBP* (FKBP12 F36V), HA-tagged (Homo sapiens, UniProt P62942, F37V); experiment: Immunoblot of FKBP* degradation in 293FT cells (CRBN-WT or CRBN−/−); settings: for degradation of FKBP*: 100 nM
T1 construct: expressed in transfected cells; host or cells: 293FT cells (CRBN-WT or CRBN-/-)
Protocol: 293FT cells (CRBN-WT or CRBN−/−) expressing either HA-tagged FKBP12WT or FKBP* were treated with indicated concentrations of dFKBP7 for 4 hours.
Isogenic 293FT cells (CRBN-WT or CRBN−/−) expressing either FKBP12WT or FKBP* were treated with 100 nM of either dFKBP7 or dFKBP13 for 4 hours.
Isogenic 293FT cells (CRBN-WT or CRBN−/−) expressing HA-tagged FKBP* were treated with the indicated dose of dFKBP13 for 4 hours.
293FT cells (CRBN-WT) expressing FKBP* were pretreated with 1 uM Carfilzomib (proteasome inhibitor), 0.5 uM MLN4924 (neddylation inhibitor), and 10 uM Lenalidomide (CRBN binding ligand) for two hours prior to a 4 hour treatment with dFKBP13.
The dTAG is predicated on the selectivity of FKBP* specific ligands over endogenous, wild type FKBP. In 293T cells expressing wild type FKBP12 or FKBP*, dFKBP7 induces targeted degradation only in FKBP* expressing cells. […] 293FT cells (CRBN-WT or CRBN−/−) expressing either HA-tagged FKBP12WT or FKBP* were treated with indicated concentrations of dFKBP7 for 4 hours.
In 293T cells expressing wild type FKBP12 or FKBP*, treatment with dFKBP7 and dFKBP13 induces targeted degradation only in FKBP* expressing cells. Isogenic 293FT cells (CRBN-WT or CRBN−/−) were engineered to expressed either FKBP12WT or FKBP*. Cells were treated with 100 nM of either dFKBP7 or dFKBP13 for 4 hours before lysates were prepared for western immunoblot analysis.
In an effort to define the optimal concentration of dFKB13 heterobifunctional compound to induce degradation of FKBP*, degradation was measured upon treatment with increasing concentrations of dFKBP13. Isogenic 293FT cells (CRBN-WT or CRBN−/−) were engineered to expressed HA-tagged FKBP*. Cells were treated with the indicated dose of dFKBP13 for 4 hours before lysates were prepared for western immunoblot analysis.
293FT cells (CRBN-WT) were engineered to express FKBP*. Cells were pretreated with 1 uM Carfilzomib (proteasome inhibitor), 0.5 uM MLN4924 (neddylation inhibitor), and 10 uM Lenalidomide (CRBN binding ligand) for two hours prior to a 4 hour treatment with dFKBP13. Lysates were prepared and western immunoblot analysis performed.

[2] = target: T2, FKBP* fused to Nluc (Homo sapiens, UniProt P62942+Q96SW2, F37V); experiment: Nluc/Fluc luciferase signal ratio assay of FKBP* degradation in 293FT cells; settings: wild type or CRBN−/− 293FT cells, indicated concentrations, 4 hours
T2 construct: expressed in transfected cells; host or cells: 293FT cells (wild type or CRBN-/-)
T2 sequence (P62942 2-108 F37V limits assumed): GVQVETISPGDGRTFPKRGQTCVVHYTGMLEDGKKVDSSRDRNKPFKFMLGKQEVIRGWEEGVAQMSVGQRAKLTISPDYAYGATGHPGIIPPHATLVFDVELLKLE
T2 sequence (Q96SW2 whole entry, the tested form may be a part): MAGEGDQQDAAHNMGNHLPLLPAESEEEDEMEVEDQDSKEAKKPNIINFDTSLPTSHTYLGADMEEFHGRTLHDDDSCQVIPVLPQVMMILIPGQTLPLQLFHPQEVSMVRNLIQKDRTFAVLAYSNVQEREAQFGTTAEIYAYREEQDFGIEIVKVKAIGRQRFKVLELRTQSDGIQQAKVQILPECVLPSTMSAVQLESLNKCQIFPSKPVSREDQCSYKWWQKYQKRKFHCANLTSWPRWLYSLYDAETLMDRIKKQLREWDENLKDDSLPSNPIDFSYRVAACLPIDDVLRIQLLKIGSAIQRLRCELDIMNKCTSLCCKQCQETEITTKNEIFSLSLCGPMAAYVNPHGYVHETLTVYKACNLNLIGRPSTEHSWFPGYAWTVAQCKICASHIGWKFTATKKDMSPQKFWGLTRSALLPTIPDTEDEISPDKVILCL
T2 sequence (Q16531 whole entry partner, the tested form may be a part): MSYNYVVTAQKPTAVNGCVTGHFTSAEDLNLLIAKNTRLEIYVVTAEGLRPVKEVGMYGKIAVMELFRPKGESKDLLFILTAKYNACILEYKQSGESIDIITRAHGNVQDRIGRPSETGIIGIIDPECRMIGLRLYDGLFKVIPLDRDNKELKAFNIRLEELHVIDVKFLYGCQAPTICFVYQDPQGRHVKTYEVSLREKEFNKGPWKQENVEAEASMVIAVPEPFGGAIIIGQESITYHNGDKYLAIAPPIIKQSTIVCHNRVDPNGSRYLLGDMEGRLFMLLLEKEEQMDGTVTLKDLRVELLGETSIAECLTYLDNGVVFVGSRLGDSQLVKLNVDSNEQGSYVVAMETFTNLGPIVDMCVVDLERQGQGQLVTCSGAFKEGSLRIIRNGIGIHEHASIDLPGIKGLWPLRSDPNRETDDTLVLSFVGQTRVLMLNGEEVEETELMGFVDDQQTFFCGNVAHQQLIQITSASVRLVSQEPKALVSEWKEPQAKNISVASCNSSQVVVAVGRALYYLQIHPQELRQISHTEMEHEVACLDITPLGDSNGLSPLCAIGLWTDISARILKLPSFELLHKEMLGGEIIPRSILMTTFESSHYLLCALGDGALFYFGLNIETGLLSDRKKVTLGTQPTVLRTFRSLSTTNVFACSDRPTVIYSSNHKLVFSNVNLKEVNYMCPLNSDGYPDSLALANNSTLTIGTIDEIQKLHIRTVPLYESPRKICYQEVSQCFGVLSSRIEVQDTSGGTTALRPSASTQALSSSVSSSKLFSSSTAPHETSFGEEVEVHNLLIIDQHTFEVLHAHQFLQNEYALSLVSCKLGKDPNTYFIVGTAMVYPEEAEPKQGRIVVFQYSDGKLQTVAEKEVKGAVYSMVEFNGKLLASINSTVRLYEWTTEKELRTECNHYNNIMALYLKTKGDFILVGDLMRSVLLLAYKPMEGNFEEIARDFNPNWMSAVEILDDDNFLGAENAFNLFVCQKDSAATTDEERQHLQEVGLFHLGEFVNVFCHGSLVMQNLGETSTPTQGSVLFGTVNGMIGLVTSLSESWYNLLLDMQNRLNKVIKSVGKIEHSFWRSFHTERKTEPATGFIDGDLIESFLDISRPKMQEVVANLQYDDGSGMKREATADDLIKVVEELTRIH
Protocol: FIG. 5A and FIG. 5B are graphs measuring the activity of a panel of dFKBP heterobifunctional compounds in cells expressing FKBP* fused to Nluc. Degradation of FKBP* is measured as a signal ration (Nluc/Fluc) between NANOluc and firefly luciferase from the same multicistronic transcript in wild type (FIG. 7A) or CRBN−/− ([…]) 293FT cells treated with indicated concentrations of dFKBPs for 4 hours. A decrease in the signal ratio indicates FKBP* (Nluc) degradation.
In an effort to identify potent and selective dFKPB heterobifunctional compounds, high throughput measurements of targeted FKBP* degradation were measured by surrogate levels of luciferase. Here, FKBP* is exogenously expressed as a multicistronic transcript with two types of luciferase: nano luciferase (NLuc) and firefly luciferase (FLuc) that allow for cell normalized quantification of FKBP* protein levels. Degradation of FKBP* is measured as a signal ration (Nluc/Fluc) in wild type (FIG. 4A) or CRBN−/− (FIG. 4B) 293FT cells treated with indicated concentrations of dFKBPs for 4 hours.

[3] = system: NIH3T3 cells expressing dTAG-KRASG12V; experiment: Propidium iodide cell cycle analysis of NIH3T3 cells expressing dTAG-KRASG12V; settings: 48 hours
Protocol: FIG. 20 is a bar graph illustrating NIH3T3 cells expressing dTAG-KRASG12V treated with dFKBP7 and dFKBP13 for 48 hours to induce targeted dTAG-KRASG12V degradation. Fixed cells were stained with propidium iodide and cell cycle analysis was performed.
NIH3T3 cells were engineered to express dTAG-KRASG12V. NIH3T3 cells expressing dTAG-KRASG12V were treated with dFKBP7 and dFKBP13 for 48 hours to induce targeted dTAG-KRASG12V degradation. Fixed cells were stained with propidium iodide and cell cycle analysis was performed.

[4] = system: dTAG-KRAS alleles (WT, G12C, G12D, G12V, G13D, Q61L, Q61R); experiment: Immunoblot of dTAG-KRAS WT and mutant alleles in NIH3T3 cells; settings: 1 uM, 24 hours
Protocol: FIG. 16 is an immunoblot of NIH3T3 cells expressing KRAS alleles either WT or mutant forms of amino acid glycine 12 (G12C, G12D, and G12V) treated with 1 uM of dFKBP13 for 24 hours.
FIG. 17 is an immunoblot of NIH3T3 cells expressing either WT or mutant KRAS alleles (G13D, Q61L, and Q61R) treated with 1 uM of dFKBP13 for 24 hours.
The dFKBP13 heterobifunctional compound potently degrades dTAG-KRAS mutant alleles. NIH3T3 cells were engineered to express KRAS alleles either WT or mutant forms of amino acid glycine 12 (G12C, G12D, and G12V). Western blotting of NIH3T3 cells expressing dTAG fused to the N-terminus of KRAS alleles were treated with 1 uM of dFKBP13 for 24 hours. Cells were harvested and immunoblotted to measure degradation of dTAG-KRAS and downstream surrogates of KRAS signaling (e.g. pMEK and pAKT).
The dFKBP13 heterobifunctional compound potently degrades dTAG-KRAS mutant alleles. NIH3T3 cells were engineered to express either WT or mutant KRAS alleles (G13D, Q61L, and Q61R). Western blotting of NIH3T3 cells expressing dTAG fused to the N-terminus of KRAS alleles were treated with 1 uM of dFKBP13 for 24 hours. Cells were harvested and immunoblotted to measure degradation of dTAG-KRAS and downstream surrogates of KRAS signaling (e.g. pMEK and pAKT).

[5] = system: NIH3T3 cells expressing FKBP*-KRASG12V; experiment: Phase contrast imaging of NIH3T3 cells expressing dTAG-KRAS; settings: NIH3T3 overexpressing dTAG-KRAS, 24 hours
Protocol: FIG. 18A, FIG. 18B, FIG. 18C, and FIG. 18D are panels of phase contrast images of control NIH3T3 cells or NIH3T3 expressing FKBP* fused to the N-terminus of KRASG12V treated with DMSO of dFKBP13 for 24 hours.

[6] = 293FT CRBN-WT or CRBN−/−, 4 hours

T1 sequence (P62942 2-108 F37V limits assumed): as the sequence (P62942 2-108 F37V limits assumed) above

| Structure (SMILES) | degradation of FKBP* [1, 6] | degradation of HA-tagged FKBP* ([1]; 293FT CRBN-WT or CRBN−/−, indicated concentrations, 4 hours) | FKBP* degradation as signal ratio (Nluc/Fluc) [2] | cell cycle profile (S-phase entry) [3] | dose dependence of degradation of HA-tagged FKBP* ([1]; 293FT CRBN-WT or CRBN−/−, indicated dose, 4 hours) | mechanism of FKBP* degradation ([1]; 293FT CRBN-WT, 4 hour treatment after inhibitor pretreatment) | degradation of dTAG-KRAS alleles ([4]; G12C, G12D, G12V) | degradation of dTAG-KRAS alleles ([4]; G13D, Q61L, Q61R) | cell morphology [5] |
| --- | --- | --- | --- | --- | --- | --- | --- | --- | --- |
| CC[C@H](C(=O)N1CCCC[C@H]1C(=O)O[C@H](CCc1ccc(OC)c(OC)c1)c1cccc(OCC(=O)NCCCOCCOCCOCCCNC(=O)COc2cccc3c2C(=O)N(C2CCC(=O)NC2=O)C3=O)c1)c1cc(OC)c(OC)c(OC)c1 (some centres unmarked) [dFKBP7] | CRBN-dependent degradation of FKBP* | CRBN-dependent degradation of FKBP* | effectively degrade FKBP* in a cereblon dependent manner | diminished S-phase entry | – | – | – | – | – |
| CC[C@H](C(=O)N1CCCC[C@H]1C(=O)O[C@H](CCc1ccc(OC)c(OC)c1)c1cccc(OCC(=O)NCCCCCCOc2cccc3c2C(=O)N(C2CCC(=O)NC2=O)C3=O)c1)c1cc(OC)c(OC)c(OC)c1 (some centres unmarked) [dFKBP13] | CRBN-dependent degradation of FKBP* | – | – | diminished S-phase entry | dose- and CRBN-dependent degradation | CRBN- and proteasome-dependent degradation | potent degradation of WT and mutant KRAS alleles | potent degradation of WT and mutant KRAS alleles | morphologically revert back to the wild type (DMSO control) state |
